According to patent publication US20240116845A1, “INDENE COMPOUNDS, PHARMACEUTICAL COMPOSITIONS THEREOF, AND THEIR THERAPEUTIC APPLICATIONS” (NucMito Pharmaceuticals Co., Ltd., priority 2021, published 2024):

How the values were obtained:
Assay type in all cases: cell-based
[1] = system: alpha-smooth muscle actin (α-SMA); assay: Inhibition of TGF-β induced expression of alpha-smooth muscle actin in CFSC cells (western blot); conditions: compound at 10 μM, TGF-β (10 ng/mL), 24 hours
Outline: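 Read-out is percent decrease in α-SMA western-blot band intensity, β-actin also probed, relative to TGF-β-only cells. CFSC cells were co-treated for 24 h at 37 °C with 10 ng/mL TGF-β and 10 μM compound in serum-free DMEM.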

[2] = system: A549 (lung adenocarcinoma); assay: Antiproliferative activity, CCK-8 cell viability; conditions: Homo sapiens, 72 h, read-out: Inhibition of Cancerous Cells, A549; for inhibition at 3.3 µM: compound concentration of 3.3 μM; for inhibition at 10 µM: compound concentration of 10 μM; for inhibition at 30 µM: compound concentration of 30 μM
[3] = system: MDA-MB-231 (breast cancer); assay: Antiproliferative activity, CCK-8 cell viability; conditions: Homo sapiens, 72 h, read-out: Inhibition of Cancerous Cells, MDA-MB-231; for inhibition at 3.3 µM: compound concentration of 3.3 μM; for inhibition at 10 µM: compound concentration of 10 μM; for inhibition at 30 µM: compound concentration of 30 μM
Outline: (§1)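 Viability relative to DMSO controls came from CCK-8 absorbance at 450 nm after 72 h exposure at 37°C. Compound concentrations were 3.3, 10 or 30 μM, in DMEM plus 10% FBS. Results are categorised by inhibition level: at least 50%, 30 to under 50%, or under 30%.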

HepG2 (liver cancer) = assay: Antiproliferative activity, CCK-8 cell viability; conditions: Homo sapiens, 72 h, read-out: Inhibition of Cancerous Cells, HepG2; for inhibition at 3.3 µM: compound concentration of 3.3 μM; for inhibition at 10 µM: compound concentration of 10 μM; for inhibition at 30 µM: compound concentration of 30 μM
Outline: as §1

[4] = system: B16F10 (malignant melanoma); assay: Antiproliferative activity, CCK-8 cell viability; conditions: Mus musculus, B16-F10, 72 h, read-out: Inhibition of Cancerous Cells, B16F10; for inhibition at 3.3 µM: compound concentration of 3.3 μM; for inhibition at 10 µM: compound concentration of 10 μM; for inhibition at 30 µM: compound concentration of 30 μM
Outline: as §1

HeLa (cervical cancer) = assay: Antiproliferative activity, CCK-8 cell viability; conditions: Homo sapiens, 72 h, read-out: Inhibition of Cancerous Cells, HELA; for inhibition at 3.3 µM: compound concentration of 3.3 μM; for inhibition at 10 µM: compound concentration of 10 μM; for inhibition at 30 µM: compound concentration of 30 μM
[5] = system: A431 (epidermoid carcinoma); assay: Antiproliferative activity, CCK-8 cell viability; conditions: Homo sapiens, A-431, 72 h, read-out: Inhibition of Cancerous Cells, A431; for inhibition at 3.3 µM: compound concentration of 3.3 μM; for inhibition at 10 µM: compound concentration of 10 μM; for inhibition at 30 µM: compound concentration of 30 μM
Outline: as §1

SW480 (colon cancer) = assay: Antiproliferative activity, CCK-8 cell viability; conditions: Homo sapiens, 72 h, read-out: Inhibition of Cancerous Cells, SW480; for inhibition at 3.3 µM: compound concentration of 3.3 μM; for inhibition at 10 µM: compound concentration of 10 μM; for inhibition at 30 µM: compound concentration of 30 μM
Outline: as §1

Structure (SMILES)	inhibition at 10 µM [1]	inhibition at 3.3 µM [2]	inhibition at 10 µM [2]	inhibition at 30 µM [2]	inhibition at 3.3 µM [3]	inhibition at 10 µM [3]	inhibition at 30 µM [3]	inhibition at 3.3 µM (HepG2 (liver cancer))	inhibition at 10 µM (HepG2 (liver cancer))	inhibition at 30 µM (HepG2 (liver cancer))	inhibition at 3.3 µM [4]	inhibition at 10 µM [4]	inhibition at 30 µM [4]	inhibition at 3.3 µM (HeLa (cervical cancer))	inhibition at 10 µM (HeLa (cervical cancer))	inhibition at 30 µM (HeLa (cervical cancer))	inhibition at 3.3 µM [5]	inhibition at 10 µM [5]	inhibition at 30 µM [5]	inhibition at 3.3 µM (SW480 (colon cancer))	other results
CC1=C(CC(=O)O)c2cc(F)ccc2/C1=C\c1cccc(COc2ccc(C(C)(C)C)cc2)c1 [Compound A22, 2-[(1Z)-1-({3-[(4-Tert-butylphenoxy)methyl]phenyl}methylidene)-5-fluoro-2-methyl-1H-inden-3-yl]acetic acid]	≥ 80%	< 30%	30 to 50%	≥ 50%	≥ 50%	≥ 50%	≥ 50%	30 to 50%	≥ 50%	≥ 50%	≥ 50%	≥ 50%	≥ 50%	< 30%	< 30%	≥ 50%	≥ 50%	≥ 50%	≥ 50%	30 to 50%	inhibition at 10 µM (SW480 (colon cancer)): ≥ 50%; inhibition at 30 µM (SW480 (colon cancer)): ≥ 50%
CC1=C(CC(=O)O)c2cc(F)ccc2/C1=C\c1cccc(OCc2ccccc2)c1 [Compound A4, 2-[(1Z)-5-Fluoro-1-(3-(benzyloxy)benzylidene)-2-methyl-1H-inden-3-yl]-acetic acid]	50 to 80%	30 to 50%	≥ 50%	≥ 50%	≥ 50%	≥ 50%	≥ 50%	< 30%	< 30%	≥ 50%	≥ 50%	≥ 50%	≥ 50%	30 to 50%	≥ 50%	≥ 50%	30 to 50%	≥ 50%	≥ 50%	30 to 50%	inhibition at 10 µM (SW480 (colon cancer)): ≥ 50%; inhibition at 30 µM (SW480 (colon cancer)): ≥ 50%
O=C(O)CC1=C/C(=C/c2ccc(Oc3ccc(F)cc3)cc2)c2ccc(F)cc21 [Compound D33, 2-[(1Z)-5-Fluoro-1-{[4-(4-fluorophenoxy)phenyl]methylidene}-1H-inden-3-yl]acetic acid]	< 30%	30 to 50%	30 to 50%	≥ 50%	≥ 50%	≥ 50%	≥ 50%	≥ 50%	≥ 50%	≥ 50%	30 to 50%	≥ 50%	≥ 50%	30 to 50%	< 30%	≥ 50%	< 30%	30 to 50%	≥ 50%	30 to 50%	inhibition at 10 µM (SW480 (colon cancer)): ≥ 50%; inhibition at 30 µM (SW480 (colon cancer)): ≥ 50%
CC1=C(CC(=O)O)c2cc(F)cc(F)c2/C1=C/c1cccc(Oc2ccccc2)c1 [Compound E7, 2-[(1E)-5,7-Difluoro-1-(3-(phenoxy)benzylidene)-2-methyl-1H-inden-3-yl]-acetic acid]	≥ 80%	< 30%	< 30%	≥ 50%	≥ 50%	≥ 50%	≥ 50%	≥ 50%	≥ 50%	≥ 50%	≥ 50%	≥ 50%	≥ 50%	30 to 50%	≥ 50%	≥ 50%	30 to 50%	≥ 50%	≥ 50%	< 30%	inhibition at 10 µM (SW480 (colon cancer)): ≥ 50%; inhibition at 30 µM (SW480 (colon cancer)): ≥ 50%
CC1=C(CC(=O)O)c2cc(F)ccc2/C1=C/c1ccc(Oc2ccc(F)c(F)c2)cc1 [Compound E1, 2-[(1E)-5-Fluoro-2-methyl-1-({4-[3,4-difluorophenoxy]phenyl}methylidene)-1H-inden-3-yl]acetic acid]	≥ 80%	30 to 50%	≥ 50%	≥ 50%	≥ 50%	≥ 50%	≥ 50%	≥ 50%	≥ 50%	≥ 50%	< 30%	30 to 50%	≥ 50%	30 to 50%	≥ 50%	≥ 50%	30 to 50%	≥ 50%	≥ 50%	≥ 50%	inhibition at 10 µM (SW480 (colon cancer)): ≥ 50%; inhibition at 30 µM (SW480 (colon cancer)): ≥ 50%
CC1=C(CC(=O)O)c2cc(F)cc(F)c2/C1=C\c1cccc(Oc2ccccc2)c1 [Compound D20, 2-[(1Z)-5,7-Difluoro-1-(3-(phenoxy)benzylidene)-2-methyl-1H-inden-3-yl]-acetic acid]	≥ 80%	30 to 50%	≥ 50%	≥ 50%	30 to 50%	≥ 50%	≥ 50%	≥ 50%	≥ 50%	≥ 50%	30 to 50%	≥ 50%	≥ 50%	< 30%	< 30%	≥ 50%	< 30%	< 30%	≥ 50%	≥ 50%	inhibition at 10 µM (SW480 (colon cancer)): ≥ 50%; inhibition at 30 µM (SW480 (colon cancer)): ≥ 50%
CC1=C(CC(=O)O)c2cc(F)ccc2/C1=C\c1cccc(COc2ccc(F)cc2)c1 [Compound A6, 2-[(1Z)-5-Fluoro-1-({3-[(4-fluorophenoxy)methyl]phenyl}methylidene)-2-methyl-1H-inden-3-yl]acetic acid]	≥ 80%	< 30%	30 to 50%	≥ 50%	≥ 50%	≥ 50%	≥ 50%	≥ 50%	≥ 50%	≥ 50%	< 30%	30 to 50%	≥ 50%	≥ 50%	≥ 50%	≥ 50%	30 to 50%	≥ 50%	≥ 50%	< 30%	inhibition at 10 µM (SW480 (colon cancer)): ≥ 50%; inhibition at 30 µM (SW480 (colon cancer)): ≥ 50%
CC1=C(CC(=O)O)c2cc(F)ccc2/C1=C\c1ccc(Cc2ccc(F)cc2)cc1 [Compound A3, 2-[(1Z)-5-Fluoro-2-methyl-1-({4-[4-fluorobenzyl]phenyl}methylidene)-1H-inden-3-yl]acetic acid]	≥ 80%	< 30%	≥ 50%	≥ 50%	≥ 50%	≥ 50%	≥ 50%	≥ 50%	≥ 50%	≥ 50%	< 30%	30 to 50%	≥ 50%	< 30%	30 to 50%	≥ 50%	< 30%	≥ 50%	≥ 50%	≥ 50%	inhibition at 10 µM (SW480 (colon cancer)): ≥ 50%; inhibition at 30 µM (SW480 (colon cancer)): ≥ 50%
